Measured values as given in ChEMBL document CHEMBL5252651, “Discovery of Bioactive Metabolites by Acidic Stress to a Geldanamycin Producer, Streptomyces samsunensis” (J Nat Prod, 2023).
Calls of active or inactive are those of the source.

Key:
Type in all cases: functional, organism-based
Staphylococcus aureus [1] = assay: Antibacterial activity against methicillin-resistant Staphylococcus aureus USA300 LAC assessed as bacterial growth inhibition at 5 ug/ml incubated for 22 hrs by microplate reader analysis; conditions: dose 5.0 µg/ml
Staphylococcus aureus [2] = assay: Anti-biofilm activity against methicillin-resistant Staphylococcus aureus USA300 LAC assessed as inhibition of biofilm formation incubated for 22 hrs by crystal violet staining based assay
Staphylococcus = assay: Antivirulence activity against methicillin-resistant Staphylococcus aureus USA300 LAC assessed as inhibition of Phenol soluble modulin production at 5 ug/ml incubated for 22 hrs by LC-MS analysis; conditions: dose 5.0 µg/ml
Staphylococcus aureus [3] = assay: Antibacterial activity against methicillin-resistant Staphylococcus aureus USA300 LAC assessed as bacterial growth inhibition at 10 ug/ml incubated for 22 hrs by microplate reader analysis; conditions: dose 10.0 µg/ml
Staphylococcus aureus [4] = assay: Antivirulence activity against methicillin-resistant Staphylococcus aureus USA300 LAC assessed as change in […] transcriptional level at 10 ug/ml incubated for 8 to 16 hrs by qRT-PCR analysis; conditions: dose 10.0 µg/ml, time 8-16 hrs
Staphylococcus aureus [5] = assay: Antivirulence activity against methicillin-resistant Staphylococcus aureus USA300 LAC assessed as change in RNAIII transcriptional level at 10 ug/ml incubated for 8 to 16 hrs by qRT-PCR analysis; conditions: dose 10.0 µg/ml, time 8-16 hrs

CO[C@H]1/C=C\C=C(/C)C(=O)NC2=CC(=O)C(O)=C(C[C@@H](C)C[C@H](OC)[C@H](O)[C@@H](C)/C=C(\C)[C@@H]1OC(N)=O)C2=O
inactive: Activity (Staphylococcus aureus [1]) | Activity (Staphylococcus aureus [2]) | inhibition (Staphylococcus) | Activity (Staphylococcus aureus [3]) | Activity (Staphylococcus aureus [4]) | Activity (Staphylococcus aureus [5])

CO[C@H]1C[C@H](C)CC2=C(O)C(=O)C=C(NC(=O)/C(C)=C/[C@H](O)C[C@H](OC)[C@@H](OC(N)=O)/C(C)=C/[C@H](C)[C@H]1O)C2=O
inactive: Activity (Staphylococcus aureus [1]) | Activity (Staphylococcus aureus [2]) | inhibition (Staphylococcus)

CO[C@@H](C[C@H](C)Cc1cc(O)cc(NC(C)=O)c1)[C@H](O)[C@H](C)C(=O)O
inactive: Activity (Staphylococcus aureus [1]) | Activity (Staphylococcus aureus [2]) | inhibition (Staphylococcus) | Activity (Staphylococcus aureus [3]) | Activity (Staphylococcus aureus [4]) | Activity (Staphylococcus aureus [5])

CO[C@H]1/C=C\C=C(/C)C(=O)Nc2cc(O)c(O)c(c2O)C[C@@H](C)C[C@H](OC)[C@H](O)[C@@H](C)/C=C(\C)[C@@H]1OC(N)=O
inactive: Activity (Staphylococcus aureus [1]) | Activity (Staphylococcus aureus [2]) | inhibition (Staphylococcus)

COC1=C2C[C@@H](C)C[C@H](OC)[C@H](O)[C@@H](C)/C=C(\C)[C@H](OC(N)=O)[C@@H](OC)/C=C\C=C(/C)C(=O)NC(=CC1=O)C2=O
inactive: Activity (Staphylococcus aureus [1]) | Activity (Staphylococcus aureus [2]) | inhibition (Staphylococcus) | Activity (Staphylococcus aureus [3]) | Activity (Staphylococcus aureus [4]) | Activity (Staphylococcus aureus [5])

Cc1cc(C[C@H](NC(=O)/C=C/C=C/CO)C(=O)O)ccc1O
inactive: Activity (Staphylococcus aureus [1]) | Activity (Staphylococcus aureus [2]) | inhibition (Staphylococcus)

COc1c(-c2ccccc2)cc(O[C@@H]2O[C@H](C(=O)O)[C@@H](O)[C@H](O)[C@H]2O)c(-c2ccccc2)c1O
inactive: Activity (Staphylococcus aureus [1]) | Activity (Staphylococcus aureus [2]) | inhibition (Staphylococcus)

CO[C@@H](C[C@H](C)Cc1cc(O)cc(NC(C)=O)c1)C(=O)O
inactive: Activity (Staphylococcus aureus [1]) | Activity (Staphylococcus aureus [2]) | inhibition (Staphylococcus)

CO[C@H]1C[C@H](C)CC2=C(O)C(=O)C=C(NC(=O)/C(C)=C/[C@@H](O)C[C@H](OC)[C@@H](OC(N)=O)/C(C)=C/[C@H](C)[C@H]1O)C2=O
inactive: Activity (Staphylococcus aureus [1]) | Activity (Staphylococcus aureus [2]) | inhibition (Staphylococcus)

O=C(O)/C=C/C1=C(c2cccc(O)c2)C(=O)CC[C@H]1O
inactive: Activity (Staphylococcus aureus [1]) | Activity (Staphylococcus aureus [2]) | inhibition (Staphylococcus)

CC(=O)Nc1cc(O)cc(C[C@@H](C)C(=O)O)c1
inactive: Activity (Staphylococcus aureus [1]) | Activity (Staphylococcus aureus [2]) | inhibition (Staphylococcus)
